According to US20120052017A1, “METHOD FOR PRODUCING CONTRAST AGENT FOR OPTICAL IMAGING” (CANON KABUSHIKI KAISHA, priority 2010, published 2012):

Experiments:
[1] = Solubility of ICG in dichloromethane when phospholipid was added; assay type: physicochemical; details: phospholipid not added; inferred by comparison with ICG-methanol solution
Protocol: 2 molar equivalents of a phospholipid was added to 5.5 mg of ICG. As the phospholipid, DSPC or DOPE was used. Each of these ICG-phospholipid mixtures was dissolved in 2 mL of dichloromethane. Controls were brepared by dissolving in 10 G in methanol or dichloromethane. All these 10 G solutions were filtered with a filter having a pore size of 0.2 μm and then diluted 500-fold with dichloromethane.

[2] = Composition ratio of DSPC and ICG: ICG dissolved in chloroform; assay type: physicochemical; details: 47.2 mM DSPC in the ICG chloroform solution
Protocol: 0.5, 1 or 2 Molar Equivalents of DSPC was Added to 55 mg of ICG.
3 mL of chloroform was added to each of these ICG-DSPC mixtures. The mixtures were heated at 40° C. for two minutes, and ultrasonic irradiation was performed for one minute. […] These suspensions were filtered with a filter having a pore size of 0.45 μm to remove insoluble matters. Each of the filtrates was diluted 3000-fold with methanol.

CC1(C)C(/C=C/C=C/C=C/C=C2/N(CCCCS(=O)(=O)[O-])c3ccc4ccccc4c3C2(C)C)=[N+](CCCCS(=O)(=O)[O-])c2ccc3ccccc3c21.[Na+] [ICG, indocyanine green]
ICG dissolved in dichloromethane [1]: approximately 0.6 mM | concentration of ICG dissolved [2]: 15700 µM
